Test results taken from US7608585B2, “Compositions for inhibition of necrosis induced by a neurotrophin” (Neurotech Pharmaceuticals Co., Ltd., priority 2004, dated 2009).
Like-named read-outs stand apart in the source and are kept apart here.

Experiments:
ROS in cortical neurons = assay: ROS imaging by oxidized DCDHF-DA (DCF) and hydroethidine fluorescence; format: cell-based, Rat; conditions: for BDNF-induced production of [ROS]i: concurrent addition with 100 ng/ml BDNF, 32 hr
Procedure: Cortical cell cultures (DIV 12-15) grown on glass bottom dishes were loaded with 10 μM dichlorodihydro fluorescein diacetate (DCDHF-DA) or 5 μM hydroethidium (Molecular Probes, Eugene, Oreg.) plus 2% Pluronic F-127 in HEPES-buffered control salt solution (HCSS) buffer containing (in mM): 120 NaCl, 5 KCl, 1.6 MgCl2, 2.3 CaCl2, 15 glucose, 20 HEPES, and 10 NaOH. Cultures were incubated for 20 min at 37° C., and washed three times with HCSS buffer. […] The fluorescence images were analyzed using a QuantiCell 700 system (Applied imaging, UK).
Superoxide production through activation of NADPH oxidase was analyzed by measuring the oxidation of HEt and DCDHF to ethidium and DCF, respectively, in cortical neurons after exposure to a sham operation, 100 ng/ml BDNF, or 100 ng/ml BDNF plus 3 nM DPI for 32 hr (FIG. 15).

[1] = tested on: BDNF-induced neuronal death in cortical cell cultures; assay: Protection against BDNF-induced neuronal death, LDH efflux; format: cell-based, Rat; conditions: for BDNF neurotoxicity / BDNF-induced neuronal cell necrosis (LDH efflux): 100 ng/ml BDNF, 36 hr, 100 μg/ml anti-BDNF antibody, 100 μM trolox, 1 μg/ml cycloheximide; for Swelling of neuronal cell body and neuronal death: 36 hr after exposure to BDNF, 3-10 nM DPI, 10-30 μM AEBSF
Procedure: Cortical cell cultures (DIV 12-15) were exposed to 100 ng/ml BDNF, alone or in the presence NADPH oxidase inhibitors, 3-10 nM DPI, 10-30 μM 4-(2-amonoethyl)-benzensulfonyl fluoride (AEBSF), or 1 μM 2-Hydroxy-TTBA ((2-Hydroxy-5-(2,3,5,6-tetrafluoro-4-trifluoromethyl-benzylamino)-benzoic acid). Neuronal death was analyzed 36 hr later by measurement of LDH efflux into the bathing medium.

[2] = tested on: Neuron-rich cortical cell cultures; assay: Serum deprivation-induced neuronal apoptosis, counting viable neurons; format: cell-based, Rat; conditions: for Anti-apoptotic action of BDNF on inclusion of the substance: 100 ng/ml BDNF plus 3 nM DPI or 100 μM trolox; for Serum deprivation-induced neuronal apoptosis: alone, without BDNF; for Serum deprivation-induced neuronal apoptosis / Delayed neuronal death evolving in the presence of BDNF: 3 nM DPI, 100 μM trolox; for Delayed neuronal death evolving in the presence of BDNF: concurrent addition, 48 hr
Procedure: (§1) For neuron-glia mixed cultures, 10 μM cytosine arabinoside (Ara C) was included to stop the overgrowth of non-neuronal cells to cultures at DIV 5-7 when glial cells were confluent underneath neurons. After 2 days, cultures were then fed with plating medium lacking fetal serum twice a week. Cultures were maintained at 37° C. in a humidified 5% CO2 incubator. For neuron-rich cultures (>95%), 2.5 μM Ara C was included to cultures at 2-3 days in vitro (DIV 2-3) as previously described (Gwag et al., 1997).
(§2) Mixed cortical cell cultures (DIV 12-14) were rinsed in serum free MS (MEM supplemented with 26.5 mM sodium bicarbonate and 21 mM glucose) and then exposed to various concentrations of NGF, BDNF or NT-3 in serum free MS. Neuronal cell death was analyzed by measuring the level of lactate dehydrogenase (LDH) released into the bathing medium. The percent neuronal death was normalized to the mean LDH value released after a sham control (defined as 0%) or continuous exposure to 500 μM NMDA for 24 hr (defined as 100%) The latter produces complete neuronal death within 24 hr. For experiments for serum deprivation, neuron-rich cortical cell cultures (DIV 7) were placed into serum free MS containing 1 μM MK-801 as described (Gwag et al., 1995). Neuronal death was analyzed 24 and 48 hr later by counting viable neurons excluding Trypan Blue satained.
Neuron-rich cortical cell cultures (DIV 7) were deprived of serum, alone (serum deprivation) or in the presence of 100 ng/ml BDNF, 100 ng/ml BDNF plus 3 nM DPI, 3 nM DPI, 100 ng/ml BDNF plus 100 μM trolox, or 100 μM trolox. Neuronal death was assessed 24 hr and 48 hr later by counting viable neurons.

[3] = tested on: free radical neurotoxicity; conditions: as anti-oxidants; cited from earlier work
[4] = tested on: Mixed cortical cell cultures; format: cell-based, Rat
Procedure: Rat cortical cell cultures were prepared from the 17-day-old fetal brain and the neocortices were mechanically triturated as previously described (Noh and Gwag, 1997). Dissociated cells were plated on 6-well plates and 24-well plates (approximately 3 cortices per plate), or on glass bottom 35 mm dishes for ROS imaging. Plating media consist of Eagle's minimal essential media (MEM, Earle's salts, supplied glutamine-free) supplemented with 5% horse serum, 5% fetal bovine serum, 21 mM glucose, 26.5 mM bicarbonate and 2 mM L-glutamine.
as §1
To examine if neurotrophins would induce neuronal necrosis, BDNF-induced neuronal death was analyzed by measuring the level of lactate dehydrogenase (LDH) released into the bathing medium.
as §2
Neuronal cell death was assessed by measurement of LDH efflux to the bathing medium, mean±SEM (n=16 culture wells per condition). *, Significant difference from the relevant control (sham washed control), at P<0.05 using analysis of variance and Student-Newman-Keuls test.

cortical neurons = format: cell-based
Procedure: To examine the patterns of BDNF-induced neuronal death, we observed neurons from 32 hrs after a sham wash or continuous exposure to 100 ng/ml BDNF under phase contrast or transmission electron microscope.
Cultures were fixed in Karnovskys fixative solution (1% paraformaldehyde, 2% glutaraldehyde, 2 mM calcium cholride, 100 mM cacodylate buffer, pH 7.4) for 2 hr, washed with cacodylate buffer, and post-fixed in 1% osmium tetroxide and 1.5% potassium ferrocyanide for 1 hr. Cells were then stained en bloc in 0.5% uranyl acetate, dehydrated through graded ethanol series, and embedded in Poly/Bed 812 resin (Pelco, Calif.). Cells were sectioned using Reichert Jung Ultracut S (Leica, Cambridge, UK). After staining cells with uranyl acetate and lead citrate, cells were observed and photographed under Zeiss EM 902A.

[5] = 36 hr after 100 ng/ml BDNF, 3 nM DPI, 10 μM AEBSF, 1 μM 2-Hydroxy-TTBA

Question: Which “BDNF-induced production of [ROS]i” value (ROS in cortical neurons) does the source give for `C[C@@H]1C[C@@H]([C@H](O)CC2CC(=O)NC(=O)C2)C(=O)[C@@H](C)C1` [cycloheximide, reference compound] here?
Answer: prevented

Question: What about the “BDNF neurotoxicity / BDNF-induced neuronal cell necrosis (LDH efflux)” value [1] of the same molecule?
Answer: blocked

Question: Which “Anti-apoptotic action of BDNF on inclusion of the substance” value [2] does the source give for `c1ccc2c(c1)[I+]c1ccccc1-2` [DPI, diphenylene iodonium] here?
Answer: insensitive

Question: What about the “Serum deprivation-induced neuronal apoptosis” value [2] of the same molecule?
Answer: Neither DPI nor trolox alone reduced

Question: What about the “Delayed neuronal death evolving in the presence of BDNF” value [2] of the same molecule?
Answer: attenuated

Question: And the “BDNF-induced superoxide production (oxidation of HEt and DCDHF)” value (ROS in cortical neurons)?
Answer: completely blocked

Question: What about the “Neuronal necrosis (LDH efflux)” value [1] of the same molecule?
Answer: significantly reduced

Question: What about the “Swelling of neuronal cell body and neuronal death” value [1] of the same molecule?
Answer: significantly reduced

Question: Which Free radical neurotoxicity [3] does the source give for `COc1ccc(CNc2ccc(O)c(C(=O)O)c2)cc1` [MBAS] here?
Answer: block free radical neurotoxicity

Question: Which “Neuronal necrosis (LDH efflux)” value [1, 5] does the source give for `O=C(O)c1cc(NCc2c(F)c(F)c(C(F)(F)F)c(F)c2F)ccc1O` [2-Hydroxy-TTBA, 2-Hydroxy-5-(2,3,5,6-tetrafluoro-4trifluoromethyl-benzylamino)-benzoic acid] here?
Answer: significantly reduced

Question: What about the Free radical neurotoxicity [3] of the same molecule?
Answer: block free radical neurotoxicity

Question: Which Free radical neurotoxicity [3] does the source give for `O=C(O)c1cc(NCc2ccc(F)cc2)ccc1O` [FBAS, 5-(4-fluorobenxyl) aminosalicylic acid] here?
Answer: block free radical neurotoxicity

Question: For `NCCc1ccc(S(=O)(=O)F)cc1` [AEBSF, 4-(2-amonoethyl)-benzensulfonyl fluoride], which “Neuronal necrosis (LDH efflux)” value [1, 5] is on record?
Answer: significantly reduced

Question: What about the “Swelling of neuronal cell body and neuronal death” value [1] of the same molecule?
Answer: significantly reduced

Question: What does the source list for NT-3: neurotrophin-3, a neurotrophin?
Answer: Cell necrosis induced by neurotrophin [4]: derives cell necrosis; Neuronal death (LDH efflux to the bathing medium) [4]: Near complete neuronal death

Question: For `Cc1c(C)c2c(c(C)c1O)CCC(C)(C(=O)O)O2` (stereo not shown) [trolox], which “Anti-apoptotic action of BDNF on inclusion of the substance” value [2] is on record?
Answer: insensitive

Question: And the “Serum deprivation-induced neuronal apoptosis” value [2]?
Answer: Neither DPI nor trolox alone reduced

Question: What about the “Delayed neuronal death evolving in the presence of BDNF” value [2] of the same molecule?
Answer: attenuated

Question: What about the “BDNF-induced production of [ROS]i” value (ROS in cortical neurons) of the same molecule?
Answer: prevented

Question: And the “BDNF neurotoxicity / BDNF-induced neuronal cell necrosis (LDH efflux)” value [1]?
Answer: blocked

B1: NT-4/5: a neurotrophin (protein, UniProt P34130 81-210, looked up)
Neurotrophin-4: GVSETAPASRRGELAVCDAVSGWVTDRRTAVDLRGREVEVLGEVPAAGGSPLRQYFFETRCKADNAEEGGPGAGGGGCRGVDRRHWVSECKAKQSYVRALTADAQGRVGWRWIRIDTACVCTLLSRTGRA
Question: For B1, which “Cell necrosis induced by neurotrophin” value [4] is on record?
Answer: derives cell necrosis

B2: BDNF: brain-derived neurotrophic factor, a neurotrophin (protein, UniProt P23560 19-247, looked up)
Neurotrophic factor BDNF …: APMKEANIRGQGGLAYPGVRTHGTLESVNGPKAGSRGLTSLADTFEHVIEELLDEDQKVRPNEENNKDADLYTSRVMLSSQVPLEPPLLFLLEEYKNYLDAANMSMRVRRHSDPARRGELSVCDSISEWVTAADKKTAVDMSGGTVTVLEKVPVSKGQLKQYFYETKCNPMGYTKEGCRGIDKRHWNSQCRTTQSYVRALTMDSKKRIGWRFIRIDTSCVCTLTIKRGR
Question: Which results are given for B2?
Answer: Pattern of neuronal death under transmission electron microscope (cortical neurons): induced neuronal necrosis; Cell necrosis induced by neurotrophin [4]: derives cell necrosis; Neuronal death (LDH efflux to the bathing medium) [4]: Near complete neuronal death
